The experiment has as its target T1, PAR4 (Homo sapiens, UniProt Q96RI0).
T1 construct: expressed in transfected cells; host or cells: HEK293 PAR4 Clone 1.2A (BMS Arctic ID 383940)
T1 sequence (Q96RI0 18-385): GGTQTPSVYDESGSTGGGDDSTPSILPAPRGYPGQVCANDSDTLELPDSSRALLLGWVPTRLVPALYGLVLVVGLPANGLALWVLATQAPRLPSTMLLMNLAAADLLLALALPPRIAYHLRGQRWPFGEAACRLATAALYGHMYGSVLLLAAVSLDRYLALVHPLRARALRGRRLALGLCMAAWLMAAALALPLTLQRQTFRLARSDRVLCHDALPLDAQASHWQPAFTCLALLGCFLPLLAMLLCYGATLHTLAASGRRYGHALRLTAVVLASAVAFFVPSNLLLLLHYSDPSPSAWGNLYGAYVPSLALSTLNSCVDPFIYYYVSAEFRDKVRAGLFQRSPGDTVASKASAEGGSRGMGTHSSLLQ
In words: PAR4 FLIPR assay (antagonism of agonist peptide-induced calcium mobilization). The class given is cell-based. An excerpt: The FLIPR assay is an exemplary in vitro assay for measuring the activity of the PAR4 antagonists of the present invention. In this assay, intracellular calcium mobilization is induced in PAR4 expressing cells by a PAR4 agonist and calcium mobilization is monitored.
HEK293 cells stably expressing PAR4 were generated by a standard method of transfection of human PAR4 (F2R23) cDNA expression vector and selected based on PAR4 protein expression or mRNA expression. […] These cells also express endogenous PAR1 and can elicit calcium signal upon stimulation with PAR1 agonist peptide. Therefore, the same cells were also used to determine selectivity against PAR1 and agonist activity for both receptors. Cells from HEK293 PAR4 Clone 1.2A (BMS Arctic ID 383940) were propagated and used for calcium mobilization studies.
FLIPR-based calcium mobilization assay in HEK293 cells was used to measure PAR4 antagonism, agonism, and selectivity against PAR1. The activity of the PAR4 antagonists of the present invention were tested in PAR4 expressing cells by monitoring H-Ala-Phe(4-F)-Pro-Gly-Trp-Leu-Val-Lys-Asn-Gy-NH2-induced intracellular calcium mobilization. Counter screens for agonist activity and PAR1 antagonist activity were also performed. Briefly, PAR1/PAR4-expressing HEK293 cells were grown in DMEM (Life Technology, Grand Island, NY) containing 10% heat-inactivated FBS, 1% Penicillin-Streptomycin, 10 μg/mL blasticidin, and 100 μg/mL Zeocin at 37° C. with 5% CO2. Cells were plated overnight prior to the experiment in a black 384-well Purecoat Amine clear bottom plate (Becton Dickinson Biosciences, San Jose, CA) at 10,000 cells/well in 30 μL growth medium and incubated in a humidified chamber at 37° C. with 5% CO2 overnight. Prior to compound addition, the cell medium was replaced with 40 μL of 1× calcium and magnesium-containing Hank's Balanced Saline Solution (HBSS) (with 20 mM HEPES) and 1:1000 diluted fluorescent calcium indicator (Codex Biosolutions, Gaithersburg, MD). After a 30 minute incubation period at 37° C. and a further 30 minute incubation and equilibration period at room temperature, 20 μL test compound (diluted in 1×HBSS buffer) was added at various concentrations at 0.17% dimethyl sulfoxide (DMSO) final concentration. Changes in fluorescence intensity were measured using a Functional Drug Screening System (FDSS, Hamamatsu, Japan) to determine agonist activities. The cells were then incubated for 30 minutes at room temperature followed by addition of 20 μL of agonist peptide for antagonist activity measurement. […] Compound potency was derived from 11-point concentration-response curves.
(In general: Calcium assays in cells follow changes in intracellular calcium, usually with a dye or a luminescent sensor.)

In the case of `COc1ccc(NC(=O)OC[C@H]2COc3c(cc(C)c4oc(-c5cc(C)cc6nc(OC)cnc56)cc34)O2)cn1` [Example 16, (R)-(8-(2-methoxy-7-methylquinoxalin-5-yl)-6-methyl-2,3-dihydro-[1,4]dioxino[2,3-e]benzofuran-3-yl)methyl (6-methoxypyridin-3-yl)carbamate], the IC50 came out at 3 nM.

Regarding `COc1ccc(NC(=O)OCC2Cc3c(cc(Cl)c4nc(-c5cc(C)cc6nc(OC)cnc56)sc34)O2)cn1` (stereo not drawn) [Example 17, (4-chloro-2-(2-methoxy-7-methylquinoxalin-5-yl)-7,8-dihydrobenzofuro[5,4-d]thiazol-7-yl)methyl (6-methoxypyridin-3-yl)carbamate], the 50% inhibitory concentration (IC50) turned out to be 3.1 nM.

`COc1cnc2c(-c3nc4c(Cl)cc5c(c4s3)CC(COC(=O)Nc3cccnc3)O5)cc(C)cc2n1` (stereo not drawn) [Example 18, (4-chloro-2-(2-methoxy-7-methylquinoxalin-5-yl)-7,8-dihydrobenzofuro[5,4-d]thiazol-7-yl)methyl pyridin-3-ylcarbamate]: the IC50 turned out to be 5.7 nM.

For `COc1cnc2c(-c3nc4c(Cl)cc5c(c4s3)CC(COC(=O)Nc3ccc(C)nc3)O5)cc(C)cc2n1` (stereo not drawn) [Example 19, (4-chloro-2-(2-methoxy-7-methylquinoxalin-5-yl)-7,8-dihydrobenzofuro[5,4-d]thiazol-7-yl)methyl (6-methylpyridin-3-yl)carbamate], the IC50 was found to be 2.6 nM.

As for `Cc1cc(-c2nc3c(F)cc4c(c3s2)OCC(CNC(=O)OC(C)(C)C)O4)c2ncc(OC(F)F)nc2c1` (stereo not drawn) [Example 21, tert-butyl ((2-(2-(difluoromethoxy)-7-methylquinoxalin-5-yl)-4-fluoro-7,8-dihydro-[1,4]dioxino[2′,3′:3,4]benzo[1,2-d]thiazol-7-yl)methyl)carbamate], the IC50 came to 10 nM.

For the compound `Cc1cc(-c2nc3c(F)cc4c(c3s2)OC(CO)CO4)c2ncc(OC(F)F)nc2c1` (stereo not drawn) [Example 22, (2-(2-(difluoromethoxy)-7-methylquinoxalin-5-yl)-4-fluoro-7,8-dihydro-[1,4]dioxino[2′,3′:3,4]benzo[1,2-d]thiazol-8-yl)methanol], the 50% inhibitory concentration (IC50) was determined as 8.8 nM.

With `Cc1cc(-c2nc3c(F)cc4c(c3s2)OC(CNC(=O)OC(C)(C)C)CO4)c2ncc(OC(F)F)nc2c1` (stereo not drawn) [Example 23, tert-butyl ((2-(2-(difluoromethoxy)-7-methylquinoxalin-5-yl)-4-fluoro-7,8-dihydro-[1,4]dioxino[2′,3′:3,4]benzo[1,2-d]thiazol-8-yl)methyl)carbamate], the IC50 is 9.4 nM.

Take `COc1cnc2c(-c3nc4c(F)cc5c(c4s3)OC(COC(=O)Nc3ccccc3)CO5)cc(C)cc2n1` (stereo not drawn) [Example 24, (4-fluoro-2-(2-methoxy-7-methylquinoxalin-5-yl)-7,8-dihydro-[1,4]dioxino[2′,3′:3,4]benzo[1,2-d]thiazol-8-yl)methyl phenylcarbamate]: the 50% inhibitory concentration (IC50) was 9 nM.

Take `COc1cnc2c(-c3nc4c(Cl)cc5c(c4s3)OC[C@H](COC(=O)Nc3cncc(Cl)c3)O5)cc(C)cc2n1` [Example 25, (R)-(4-chloro-2-(2-methoxy-7-methylquinoxalin-5-yl)-7,8-dihydro-[1,4]dioxino[2′,3′:3,4]benzo[1,2-d]thiazol-7-yl)methyl (5-chloropyridin-3-yl)carbamate]: the IC50 was found to be 25 nM.

For the compound `COc1cnc2c(-c3nc4c(Cl)cc5c(c4s3)OC[C@H](COC(=O)Nc3ccccc3)O5)cc(C)cc2n1` [Example 26, (R)-(4-chloro-2-(2-methoxy-7-methylquinoxalin-5-yl)-7,8-dihydro-[1,4]dioxino[2′,3′:3,4]benzo[1,2-d]thiazol-7-yl)methyl phenylcarbamate], the concentration for half-maximal inhibition (IC50) amounted to 10 nM.

As for `COc1cnc2c(-c3nc4c(Cl)cc5c(c4s3)OC[C@H](COC(=O)Nc3cccc(C#N)c3)O5)cc(C)cc2n1` [Example 27, (R)-(4-chloro-2-(2-methoxy-7-methylquinoxalin-5-yl)-7,8-dihydro-[1,4]dioxino[2′,3′:3,4]benzo[1,2-d]thiazol-7-yl)methyl (3-cyanophenyl)carbamate], the 50% inhibitory concentration (IC50) turned out to be 2.2 nM.

With `COc1cnc2c(-c3nc4c(Cl)cc5c(c4s3)OC[C@H](COC(=O)Nc3cncc(F)c3)O5)cc(C)cc2n1` [Example 28, (R)-(4-chloro-2-(2-methoxy-7-methylquinoxalin-5-yl)-7,8-dihydro-[1,4]dioxino[2′,3′:3,4]benzo[1,2-d]thiazol-7-yl)methyl (5-fluoropyridin-3-yl)carbamate], the IC50 came out at 480 nM.

For the compound `COc1cnc2c(-c3nc4c(Cl)cc5c(c4s3)OC[C@H](COC(=O)Nc3ccc(F)nc3)O5)cc(C)cc2n1` [Example 29, (R)-(4-chloro-2-(2-methoxy-7-methylquinoxalin-5-yl)-7,8-dihydro-[1,4]dioxino[2′,3′:3,4]benzo[1,2-d]thiazol-7-yl)methyl (6-fluoropyridin-3-yl)carbamate], the 50% inhibitory concentration (IC50) amounted to 2.9 nM.

With `COc1cnc2c(-c3nc4c(Cl)cc5c(c4s3)OC[C@H](COC(=O)Nc3ccncc3)O5)cc(C)cc2n1` [Example 30, (R)-(4-chloro-2-(2-methoxy-7-methylquinoxalin-5-yl)-7,8-dihydro-[1,4]dioxino[2′,3′:3,4]benzo[1,2-d]thiazol-7-yl)methyl pyridin-4-ylcarbamate], the 50% inhibitory concentration (IC50) came to 3.6 nM.

`COc1cnc2c(-c3nc4c(Cl)cc5c(c4s3)OC[C@H](COC(=O)Nc3cccnc3)O5)cc(C)cc2n1` [Example 31, (R)-(4-chloro-2-(2-methoxy-7-methylquinoxalin-5-yl)-7,8-dihydro-[1,4]dioxino[2′,3′:3,4]benzo[1,2-d]thiazol-7-yl)methyl pyridin-3-ylcarbamate]: the IC50 was 0.9 nM.

As for `COc1cnc2c(-c3nc4c(Cl)cc5c(c4s3)OC[C@H](COC(=O)Nc3ccc(Cl)nc3)O5)cc(C)cc2n1` [Example 32, (R)-(4-chloro-2-(2-methoxy-7-methylquinoxalin-5-yl)-7,8-dihydro-[1,4]dioxino[2′,3′:3,4]benzo[1,2-d]thiazol-7-yl)methyl (6-chloropyridin-3-yl)carbamate], the IC50 was 1.8 nM.

For `COc1cnc2c(-c3nc4c(Cl)cc5c(c4s3)OC[C@H](COC(=O)Nc3ccnc(C)c3)O5)cc(C)cc2n1` [Example 33, (R)-(4-chloro-2-(2-methoxy-7-methylquinoxalin-5-yl)-7,8-dihydro-[1,4]dioxino[2′,3′:3,4]benzo[1,2-d]thiazol-7-yl)methyl (2-methylpyridin-4-yl)carbamate], the IC50 was determined as 2.8 nM.

Consider `COc1cnc2c(-c3nc4c(Cl)cc5c(c4s3)OC[C@H](COC(=O)Nc3ccnnc3)O5)cc(C)cc2n1` [Example 34, (R)-(4-chloro-2-(2-methoxy-7-methylquinoxalin-5-yl)-7,8-dihydro-[1,4]dioxino[2′,3′:3,4]benzo[1,2-d]thiazol-7-yl)methyl pyridazin-4-ylcarbamate], for which the concentration for half-maximal inhibition (IC50) was 3.3 nM.

Take `COc1cnc2c(-c3nc4c(Cl)cc5c(c4s3)OC[C@H](COC(=O)Nc3ccc(C#N)nc3)O5)cc(C)cc2n1` [Example 35, (R)-(4-chloro-2-(2-methoxy-7-methylquinoxalin-5-yl)-7,8-dihydro-[1,4]dioxino[2′,3′:3,4]benzo[1,2-d]thiazol-7-yl)methyl (6-cyanopyridin-3-yl)carbamate]: the IC50 stood at 1.4 nM.

On to `COc1cc(NC(=O)OC[C@H]2COc3c(cc(Cl)c4nc(-c5cc(C)cc6nc(OC)cnc56)sc34)O2)ccn1` [Example 36, (R)-(4-chloro-2-(2-methoxy-7-methylquinoxalin-5-yl)-7,8-dihydro-[1,4]dioxino[2′,3′:3,4]benzo[1,2-d]thiazol-7-yl)methyl (2-methoxypyridin-4-yl)carbamate], for which the IC50 amounted to 1.7 nM.

For the compound `COc1cnc2c(-c3nc4c(Cl)cc5c(c4s3)OC[C@H](COC(=O)Nc3cncc(C#N)c3)O5)cc(C)cc2n1` [Example 37, (R)-(4-chloro-2-(2-methoxy-7-methylquinoxalin-5-yl)-7,8-dihydro-[1,4]dioxino[2′,3′:3,4]benzo[1,2-d]thiazol-7-yl)methyl (5-cyanopyridin-3-yl)carbamate], the IC50 amounted to 1.5 nM.

Usually IC50 stands for the concentration that gives 50% inhibition.
